Source: PubChem BioAssay AID248 (DTP/NCI, 2004)
Inconclusive results and toxic doses are left out.

System: L1210 leukemia ip in BDF1 mice, survival T/C
Assay: NCI In Vivo Anticancer Drug Screen. Data for tumor model L1210 Leukemia (intraperitoneal) in B6D2F1 (BDF1) mice
Conditions: endpoint: mean survival time, higher = longer survival
Outline: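 Tumor was transplanted into mice, which were then dosed with test compound or vehicle alone. Survival was recorded for each group, and the treated figure was expressed relative to the control figure.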

[1] = dose: 100.0 mg/kg/injection, schedule: Q04DX003 (ip), vehicle: Klucel (hydroxypropylcellulose) (HPC)
[2] = dose: 200.0 mg/kg/injection, schedule: Q04DX003 (ip), vehicle: Klucel (hydroxypropylcellulose) (HPC)
[3] = dose: 400.0 mg/kg/injection, schedule: Q04DX003 (ip), vehicle: Klucel (hydroxypropylcellulose) (HPC)
[4] = dose: 400.0 mg/kg/injection, schedule: Q04DX003 (ip), vehicle: saline
[5] = dose: 100.0 mg/kg/injection, schedule: Q01DX001 (ip), vehicle: Klucel (hydroxypropylcellulose) (HPC)
[6] = dose: 200.0 mg/kg/injection, schedule: Q01DX001 (ip), vehicle: Klucel (hydroxypropylcellulose) (HPC)
[7] = dose: 400.0 mg/kg/injection, schedule: Q01DX001 (ip), vehicle: Klucel (hydroxypropylcellulose) (HPC)
[8] = dose: 100.0 mg/kg/injection, schedule: Q01DX009 (ip), vehicle: Klucel (hydroxypropylcellulose) (HPC)
[9] = dose: 100.0 mg/kg/injection, schedule: Q01DX001 (ip), vehicle: carboxymethylcellulose (CMC)
[10] = dose: 200.0 mg/kg/injection, schedule: Q01DX001 (ip), vehicle: carboxymethylcellulose (CMC)
[11] = dose: 400.0 mg/kg/injection, schedule: Q01DX001 (ip), vehicle: carboxymethylcellulose (CMC)

`C#CCn1cnc2c(=S)nc[nH]c21` was tested, and the T/C (dose: 10.0 mg/kg/injection, schedule: Q01DX009 (ip), vehicle: saline) was 104 % of control, the T/C (dose: 15.0 mg/kg/injection, schedule: Q04DX003 (ip), vehicle: saline) was 103 % of control and the T/C (dose: 25.0 mg/kg/injection, schedule: Q01DX009 (ip), vehicle: saline) was 114 % of control. The T/C (dose: 30.0 mg/kg/injection, schedule: Q04DX003 (ip), vehicle: saline) was 111 % of control, the T/C (dose: 52.0 mg/kg/injection, schedule: Q04DX003 (ip), vehicle: Klucel (hydroxypropylcellulose) (HPC)) was 110 % of control and the T/C (dose: 60.0 mg/kg/injection, schedule: Q04DX003 (ip), vehicle: saline) was 111 % of control. For the same molecule, the T/C (dose: 78.0 mg/kg/injection, schedule: Q04DX003 (ip), vehicle: Klucel (hydroxypropylcellulose) (HPC)) was 115 % of control, the T/C (dose: 90.0 mg/kg/injection, schedule: Q01DX009 (ip), vehicle: saline) was 119 % of control and the T/C (dose: 100.0 mg/kg/injection, schedule: Q01DX001 (ip), vehicle: other) was 104 % of control. The T/C [1] was 113 % of control, the T/C (dose: 118.0 mg/kg/injection, schedule: Q04DX003 (ip), vehicle: Klucel (hydroxypropylcellulose) (HPC)) was 115 % of control and the T/C (dose: 175.0 mg/kg/injection, schedule: Q01DX009 (ip), vehicle: saline) was 93 % of control. For the same molecule, the T/C (dose: 177.0 mg/kg/injection, schedule: Q01DX001 (ip), vehicle: Klucel (hydroxypropylcellulose) (HPC)) was 108 % of control, the T/C (dose: 177.0 mg/kg/injection, schedule: Q04DX003 (ip), vehicle: Klucel (hydroxypropylcellulose) (HPC)) was 155 % of control and the T/C (dose: 177.0 mg/kg/injection, schedule: Q04DX003 (ip), vehicle: saline) was 150 % of control. For the same molecule, the T/C (dose: 200.0 mg/kg/injection, schedule: Q01DX001 (ip), vehicle: other) was 121 % of control, the T/C [2] was 124 % of control and the T/C (dose: 266.0 mg/kg/injection, schedule: Q04DX003 (ip), vehicle: Klucel (hydroxypropylcellulose) (HPC)) was 162 % of control. For the same molecule, the T/C (dose: 266.0 mg/kg/injection, schedule: Q04DX003 (ip), vehicle: saline) was 116 % of control, the T/C [3] was 157 % of control and the T/C [4] was 114 % of control. The T/C (dose: 600.0 mg/kg/injection, schedule: Q01DX001 (ip), vehicle: Klucel (hydroxypropylcellulose) (HPC)) was 152 % of control, the T/C (dose: 600.0 mg/kg/injection, schedule: Q01DX001 (ip), vehicle: other) was 156 % of control and the T/C (dose: 600.0 mg/kg/injection, schedule: Q04DX003 (ip), vehicle: saline) was 112 % of control.

In the case of `CC1(C)C2CCC1(C)C(OCCCN=C(N)CSS(=O)(=O)O)C2` (stereo unspecified), the T/C (dose: 1.5 mg/kg/injection, schedule: Q04DX002 (ip), vehicle: Klucel (hydroxypropylcellulose) (HPC)) was 113 % of control, the T/C (dose: 3.0 mg/kg/injection, schedule: Q04DX002 (ip), vehicle: Klucel (hydroxypropylcellulose) (HPC)) was 100 % of control and the T/C (dose: 6.0 mg/kg/injection, schedule: Q04DX002 (ip), vehicle: Klucel (hydroxypropylcellulose) (HPC)) was 91 % of control.

`Cc1cccc(C)c1NC(=O)Nc1cccc2ccccc12` was tested, and the T/C (dose: 100.0 mg/kg/injection, schedule: Q01DX009 (ip), vehicle: gum acacia) was 93 % of control, the T/C (dose: 100.0 mg/kg/injection, schedule: Q04DX003 (ip), vehicle: gum acacia) was 98 % of control and the T/C (dose: 200.0 mg/kg/injection, schedule: Q04DX003 (ip), vehicle: gum acacia) was 95 % of control. For the same molecule, the T/C (dose: 400.0 mg/kg/injection, schedule: Q01DX009 (ip), vehicle: gum acacia) was 94 % of control and the T/C (dose: 400.0 mg/kg/injection, schedule: Q04DX003 (ip), vehicle: gum acacia) was 91 % of control.

`CC(C)OC(=O)C(=O)Nc1cccc(Cl)c1` was tested, and the T/C [5] was 108 % of control, the T/C [6] was 95 % of control and the T/C [7] was 95 % of control.

`O=C(O)c1ccc(Cl)cc1Nc1ccc(F)cc1` was tested, and the T/C [5] was 100 % of control, the T/C [8] was 96 % of control and the T/C [6] was 100 % of control. For the same molecule, the T/C [7] was 100 % of control.

For `O=S(=O)(c1ccccc1)C(Cl)c1cccc(Cl)c1` (stereo unspecified), the T/C (dose: 100.0 mg/kg/injection, schedule: Q04DX002 (ip), vehicle: Klucel (hydroxypropylcellulose) (HPC)) was 105 % of control, the T/C (dose: 200.0 mg/kg/injection, schedule: Q04DX002 (ip), vehicle: Klucel (hydroxypropylcellulose) (HPC)) was 101 % of control and the T/C (dose: 400.0 mg/kg/injection, schedule: Q04DX002 (ip), vehicle: Klucel (hydroxypropylcellulose) (HPC)) was 122 % of control.

With `CC1(C)C2CCC(O)C1C2` (stereo unspecified) the T/C (dose: 100.0 mg/kg/injection, schedule: Q01DX001 (ip), vehicle: saline with Tween-80) was 104 % of control, the T/C (dose: 200.0 mg/kg/injection, schedule: Q01DX001 (ip), vehicle: saline with Tween-80) was 97 % of control and the T/C (dose: 400.0 mg/kg/injection, schedule: Q01DX001 (ip), vehicle: saline with Tween-80) was 90 % of control.

In the case of `O=C1N=C(c2ccccc2)C(c2ccccc2)=N1`, the T/C (dose: 100.0 mg/kg/injection, schedule: Q04DX003 (ip), vehicle: saline) was 96 % of control, the T/C (dose: 200.0 mg/kg/injection, schedule: Q04DX003 (ip), vehicle: saline) was 90 % of control and the T/C [4] was 96 % of control.

In the case of `Cc1cccc(C)c1NS(=O)(=O)c1ccccc1`, the T/C [8] was 104 % of control, the T/C [1] was 101 % of control and the T/C (dose: 200.0 mg/kg/injection, schedule: Q01DX009 (ip), vehicle: Klucel (hydroxypropylcellulose) (HPC)) was 101 % of control. The T/C [2] was 103 % of control, the T/C (dose: 400.0 mg/kg/injection, schedule: Q01DX009 (ip), vehicle: Klucel (hydroxypropylcellulose) (HPC)) was 98 % of control and the T/C [3] was 104 % of control.

With `N=C(OC1CCCCC1)N1CCOCC1` the T/C (dose: 22.0 mg/kg/injection, schedule: Q01DX Z (ip), vehicle: saline) was 100 % of control, the T/C (dose: 33.0 mg/kg/injection, schedule: Q01DX Z (ip), vehicle: saline) was 102 % of control and the T/C (dose: 50.0 mg/kg/injection, schedule: Q01DX Z (ip), vehicle: saline) was 106 % of control.

In the case of `Cc1cc(=O)c(O)c(N(C)C)o1`, the T/C (dose: 100.0 mg/kg/injection, schedule: Q04DX002 (ip), vehicle: saline with Tween-80) was 102 % of control, the T/C (dose: 200.0 mg/kg/injection, schedule: Q04DX002 (ip), vehicle: saline with Tween-80) was 102 % of control and the T/C (dose: 400.0 mg/kg/injection, schedule: Q04DX002 (ip), vehicle: saline with Tween-80) was 115 % of control.

In the case of `O=C(NNCc1ccccc1)c1ccccn1`, the T/C (dose: 12.5 mg/kg/injection, schedule: Q01DX009 (ip), vehicle: Klucel (hydroxypropylcellulose) (HPC)) was 102 % of control, the T/C (dose: 25.0 mg/kg/injection, schedule: Q01DX009 (ip), vehicle: Klucel (hydroxypropylcellulose) (HPC)) was 94 % of control and the T/C (dose: 50.0 mg/kg/injection, schedule: Q01DX009 (ip), vehicle: Klucel (hydroxypropylcellulose) (HPC)) was 97 % of control. The T/C [8] was 94 % of control.

For `CC(C)N=Cc1ccccc1O.CC(C)N=Cc1ccccc1O.[Zn]`, the T/C (dose: 100.0 mg/kg/injection, schedule: Q01DX009 (ip), vehicle: saline sonified) was 91 % of control, the T/C [1] was 88 % of control and the T/C (dose: 200.0 mg/kg/injection, schedule: Q01DX009 (ip), vehicle: saline sonified) was 92 % of control. For the same molecule, the T/C [2] was 89 % of control, the T/C (dose: 400.0 mg/kg/injection, schedule: Q01DX009 (ip), vehicle: saline sonified) was 96 % of control and the T/C [3] was 93 % of control.

For `CC(C)C(C#N)(CCN1CCCCC1)c1cccc2ccccc12` (stereo unspecified), the T/C [8] was 92 % of control.

For `Cc1cc(N(CCCl)CCCl)ccc1C=Nc1cc(Br)cc(Br)c1`, the T/C [9] was 101 % of control, the T/C [10] was 110 % of control and the T/C [11] was 108 % of control.

For `O=C(C=C(C(F)(F)F)C(F)(F)F)c1ccccc1Cl`, the T/C (dose: 12.5 mg/kg/injection, schedule: Q04DX003 (ip), vehicle: saline with Tween-80) was 97 % of control, the T/C (dose: 25.0 mg/kg/injection, schedule: Q04DX003 (ip), vehicle: saline with Tween-80) was 86 % of control and the T/C (dose: 50.0 mg/kg/injection, schedule: Q04DX003 (ip), vehicle: saline with Tween-80) was 100 % of control.

For `CCOC(=O)C1=CC2(c3ccccc3)CC1(c1ccccc1)C(c1ccccc1)=C2c1ccccc1` (stereo unspecified), the T/C (dose: 50.0 mg/kg/injection, schedule: Q01DX001 (ip), vehicle: carboxymethylcellulose (CMC)) was 97 % of control, the T/C [9] was 92 % of control and the T/C [10] was 94 % of control. The T/C [11] was 89 % of control.
